The values below come from the supplement of paper PMC10307832.

SMILES strings stand for the structures.

What all share (assay): relative viability (nuclei count vs DMSO), 5 days (fraction); higher = more cells survive
One test has as its system NCI-H1563. In short, it runs like this: (§1)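 Relative viability divides the nuclei count in treated wells by that in vehicle wells. Lung cancer cell lines were seeded in 1536-well plates, dosed by pin tool the next day, and fixed and stained after 5 days in one step with final 0.05% Triton X-100, 1% formaldehyde and 1 ug/ml Hoechst. Dosing was a single drug or a fixed anchor-drug dose plus five library-drug doses (not always all listed) in √10 steps, and values are medians of duplicate plates imaged at 4×.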

For the next test, the system named is NCI-H1623. In short, it runs like this: as §1
A further test concerns NCI-H2342. In short, it runs like this: as §1
Another test concerns NCI-H522. In a few lines: as §1
In a further test the test system is SW 900. In short, it runs like this:
as §1

The subject of a further test is NCI-H1648. In a few lines:
as §1

`Cc1cnc(-c2cnc(NCCNc3ccc(C#N)cn3)nc2-c2ccc(Cl)cc2Cl)[nH]1` + Cc1nc(Nc2ncc(C(=O)Nc3c(C)cccc3Cl)s2)cc(N2CCN(CCO)CC2)n1 [Dasatinib] (partner 0.075 µM): the relative viability with NCI-H1563 (first compound 0.08 µM) was 0.439; in the test on NCI-H1563 (first compound 0.253 µM) it was 0.471; in the test with NCI-H1563 (first compound 0.8 µM), 0.51; in the test on NCI-H1563 (first compound 2.53 µM), 0.429; with NCI-H1623 (first compound 0.08 µM), 0.5; in the test on NCI-H1623 (first compound 0.253 µM), 0.536. Further, the relative viability in the test with NCI-H1623 (first compound 0.8 µM) came out at 0.472; in the test on NCI-H1623 (first compound 2.53 µM), 0.516; in the test on NCI-H2342 (first compound 0.08 µM), 0.325; in the test with NCI-H2342 (first compound 0.253 µM), 0.321; in the test with NCI-H2342 (first compound 0.8 µM) it was 0.301; in the test on NCI-H2342 (first compound 2.53 µM) it was 0.278. Moreover, the relative viability worked out at 0.845 with NCI-H522 (first compound 0.08 µM); 0.996 in the test on NCI-H522 (first compound 0.253 µM); 0.737 in the test with NCI-H522 (first compound 0.8 µM); 0.844 in the test with NCI-H522 (first compound 2.53 µM); 0.64 in the test with SW 900 (first compound 0.08 µM); 0.425 in the test with SW 900 (first compound 0.253 µM). In addition, the relative viability in the test on SW 900 (first compound 0.8 µM) came out at 0.343; with SW 900 (first compound 2.53 µM), 0.404.

`O=c1[nH]c2ccccc2n1C1CCN(CCCC(c2ccc(F)cc2)c2ccc(F)cc2)CC1` [Pimozide] + CCNC(=O)c1noc(-c2cc(C(C)C)c(O)cc2O)c1-c1ccc(CN2CCOCC2)cc1 [Luminespib] (partner 0.01 µM): the relative viability came to 0.511 in the test with NCI-H1563 (first compound 0.08 µM); 0.513 in the test with NCI-H1563 (first compound 0.253 µM); 0.516 in the test on NCI-H1563 (first compound 0.8 µM); 0.549 with NCI-H1563 (first compound 2.53 µM); 0.496 with NCI-H1563 (first compound 8 µM); 0.515 in the test with NCI-H1623 (first compound 0.253 µM). Also, the relative viability was determined as 0.487 in the test with NCI-H1623 (first compound 0.8 µM); 0.521 in the test on NCI-H1623 (first compound 2.53 µM); 0.447 in the test on NCI-H1623 (first compound 8 µM); 0.616 in the test with NCI-H2342 (first compound 0.08 µM); 0.685 with NCI-H2342 (first compound 0.253 µM); 0.611 in the test on NCI-H2342 (first compound 0.8 µM). Moreover, the relative viability turned out to be 0.739 in the test with NCI-H2342 (first compound 2.53 µM); 0.696 with NCI-H2342 (first compound 8 µM); 1.01 with NCI-H522 (first compound 0.08 µM); 1.08 in the test with NCI-H522 (first compound 0.253 µM); 1.21 in the test with NCI-H522 (first compound 0.8 µM); 1.21 with NCI-H522 (first compound 2.53 µM). The relative viability in the test with NCI-H522 (first compound 8 µM) stood at 1.24; with SW 900 (first compound 0.08 µM), 0.163; in the test on SW 900 (first compound 0.253 µM), 0.157; in the test with SW 900 (first compound 0.8 µM), 0.18; in the test with SW 900 (first compound 2.53 µM), 0.192; in the test on SW 900 (first compound 8 µM) it was 0.181.

For `O=C(O)CCCCC(CCSCc1ccccc1)SCc1ccccc1` (stereo unspecified) [CPI-613] + COc1cccc2cc(-c3nc([C@H]4CC[C@H](C(=O)O)CC4)n4ncnc(N)c34)[nH]c12 [OSI-027] (partner 0.5 µM), the relative viability with NCI-H1563 (first compound 5 µM) amounted to 0.76; in the test on NCI-H1563 (first compound 15.81 µM) it was 0.652; with NCI-H1563 (first compound 50 µM), 0.814; with NCI-H1563 (first compound 158.11 µM), 0.52; in the test with NCI-H1563 (first compound 500 µM), 0.223; in the test with NCI-H1623 (first compound 5 µM) it was 0.431. In addition, the relative viability in the test with NCI-H1623 (first compound 15.81 µM) is 0.436; with NCI-H1623 (first compound 50 µM), 0.438; with NCI-H1623 (first compound 158.11 µM) it was 0.368; in the test on NCI-H1623 (first compound 500 µM), 0.408; in the test on NCI-H1648 (first compound 5 µM), 0.273; in the test on NCI-H1648 (first compound 15.81 µM), 0.241. Further, the relative viability with NCI-H1648 (first compound 50 µM) worked out at 0.22; with NCI-H1648 (first compound 500 µM), 0.203; with NCI-H2342 (first compound 5 µM) it was 0.568; in the test on NCI-H2342 (first compound 15.81 µM), 0.572; in the test on NCI-H2342 (first compound 50 µM), 0.643; in the test on NCI-H2342 (first compound 158.11 µM) it was 0.552. Moreover, the relative viability in the test with NCI-H2342 (first compound 500 µM) turned out to be 0.643; in the test on NCI-H522 (first compound 5 µM), 0.706; in the test with NCI-H522 (first compound 15.81 µM), 0.747; in the test on NCI-H522 (first compound 50 µM), 0.7; with NCI-H522 (first compound 158.11 µM), 0.612; in the test with NCI-H522 (first compound 500 µM), 0.467. The relative viability was 0.44 in the test on SW 900 (first compound 5 µM); 0.547 in the test on SW 900 (first compound 15.81 µM); 0.65 with SW 900 (first compound 50 µM); 0.245 with SW 900 (first compound 158.11 µM); 0.0283 in the test on SW 900 (first compound 500 µM).

As to `O=c1[nH]c2ccccc2n1C1CCN(CCCC(c2ccc(F)cc2)c2ccc(F)cc2)CC1` [Pimozide] + Cc1cc(Nc2cc(N3CCN(C)CC3)nc(Sc3ccc(NC(=O)C4CC4)cc3)n2)n[nH]1 [Tozasertib] (partner 0.1 µM), the relative viability was determined as 0.439 in the test on NCI-H1623 (first compound 0.253 µM); 0.375 in the test on NCI-H1623 (first compound 0.8 µM); 0.456 with NCI-H1623 (first compound 2.53 µM); 0.39 in the test on NCI-H1623 (first compound 8 µM); 0.574 in the test on NCI-H1648 (first compound 0.08 µM); 0.398 with NCI-H1648 (first compound 0.253 µM). Also, the relative viability was 0.353 with NCI-H1648 (first compound 0.8 µM); 0.53 in the test with NCI-H1648 (first compound 8 µM); 0.51 in the test on NCI-H2342 (first compound 0.08 µM); 0.517 in the test on NCI-H2342 (first compound 0.253 µM); 0.505 in the test with NCI-H2342 (first compound 0.8 µM); 0.488 with NCI-H2342 (first compound 2.53 µM). Moreover, the relative viability in the test with NCI-H2342 (first compound 8 µM) was determined as 0.576; in the test with NCI-H522 (first compound 0.08 µM) it was 0.509; in the test on NCI-H522 (first compound 0.253 µM) it was 0.47; with NCI-H522 (first compound 0.8 µM) it was 0.573; in the test on NCI-H522 (first compound 2.53 µM) it was 0.485; in the test on NCI-H522 (first compound 8 µM) it was 0.525. Further, the relative viability with SW 900 (first compound 0.08 µM) came to 0.633; in the test with SW 900 (first compound 0.253 µM) it was 0.606; in the test on SW 900 (first compound 0.8 µM), 0.54; with SW 900 (first compound 2.53 µM) it was 0.618; in the test on SW 900 (first compound 8 µM) it was 0.563.
